Reference: patent US12398097B2, “WDR5-MYC inhibitors” (Vanderbilt University, priority 2019, dated 2025)

Target: WDR5 (Homo sapiens, UniProt P61964)
Experiment: Competition-based fluorescence polarization anisotropy assay
Details: binding to WDR5; displacement of FITC-labeled small molecule probe (analogous to Example J2 or HCH-25) or peptide probe FITC-AHx-SEEEIDVVSV; pH 6.0; Ki converted from IC50
How it was run: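 Competition fluorescence polarization anisotropy binding to WDR5 using a FITC-labeled peptide probe or a fluorescently labeled small-molecule probe. Buffer: 200 mM phosphate, 300 mM NaCl, 0.5 mM TCEP, 0.1% Chaps, pH 6.0. Displacement data were converted to Ki.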

SMILES | Ki [nM]
CNC(=O)C(CO)NC(=O)c1cc(OC(F)(F)F)cc(NS(=O)(=O)c2cc(Br)ccc2O)c1O (stereo not shown) [HCH-46, 3-((5-Bromo-2-hydroxyphenyl)sulfonamido)-2-hydroxy-N-(3-hydroxy-1-(methylamino)-1-oxopropan-2-yl)-5-(trifluoromethoxy)benzamide] | 450
NC(=O)[C@H](CO)NC(=O)c1cc(OC(F)(F)F)cc(NS(=O)(=O)c2cc(Br)ccc2O)c1O [HCH-47, (S)—N-(1-Amino-3-hydroxy-1-oxopropan-2-yl)-3-((5-bromo-2-hydroxyphenyl)sulfonamido)-2-hydroxy-5-(trifluoromethoxy)benzamide] | 260
NC(=O)C(NC(=O)c1cc(OC(F)(F)F)cc(NS(=O)(=O)c2cc(Br)ccc2O)c1O)c1ccccn1 (stereo not shown) [HCH-49, N-(2-Amino-2-oxo-1-(pyridin-2-yl)ethyl)-3-((5-bromo-2-hydroxyphenyl)sulfonamido)-2-hydroxy-5-(trifluoromethoxy)benzamide] | 320
CN1CCC(O)(CNC(=O)c2cc(OC(F)(F)F)cc(NS(=O)(=O)c3cc(Br)cc(Cl)c3O)c2O)CC1 [HCH-50, 3-((5-Bromo-3-chloro-2-hydroxyphenyl)sulfonamido)-2-hydroxy-N-((4-hydroxy-1-methylpiperidin-4-yl)methyl)-5-(trifluoromethoxy)benzamide] | 210
CC(O)(CNC(=O)c1cc(OC(F)(F)F)cc(NS(=O)(=O)c2cc(Br)cc(Cl)c2O)c1O)C1CC1 (stereo not shown) [HCH-51, 3-((5-Bromo-3-chloro-2-hydroxyphenyl)sulfonamido)-N-(2-cyclopropyl-2-hydroxypropyl)-2-hydroxy-5-(trifluoromethoxy)benzamide] | 120
CC(C)C(O)CNC(=O)c1cc(OC(F)(F)F)cc(NS(=O)(=O)c2cc(Br)cc(Cl)c2O)c1O (stereo not shown) [HCH-52, 3-((5-Bromo-3-chloro-2-hydroxyphenyl)sulfonamido)-2-hydroxy-N-(2-hydroxy-3-methylbutyl)-5-(trifluoromethoxy)benzamide] | 140
O=C(NCC1(O)CCOCC1)c1cc(OC(F)(F)F)cc(NS(=O)(=O)c2cc(Br)cc(Cl)c2O)c1O [HCH-53, 3-((5-Bromo-3-chloro-2-hydroxyphenyl)sulfonamido)-2-hydroxy-N-((4-hydroxytetrahydro-2H-pyran-4-yl)methyl)-5-(trifluoromethoxy)benzamide] | 170
O=C(NC1COC1)c1cc(OC(F)(F)F)cc(NS(=O)(=O)c2cc(Br)cc(Cl)c2O)c1O [HCH-54, 3-((5-Bromo-3-chloro-2-hydroxyphenyl)sulfonamido)-2-hydroxy-N-(oxetan-3-yl)-5-(trifluoromethoxy)benzamide] | 140
O=C(NC1CC(F)(F)C1)c1cc(OC(F)(F)F)cc(NS(=O)(=O)c2cc(Br)ccc2O)c1O [HCH-55, 3-((5-Bromo-2-hydroxyphenyl)sulfonamido)-N-(3,3-difluorocyclobutyl)-2-hydroxy-5-(trifluoromethoxy)benzamide] | 350
NC(=O)[C@H](CO)NC(=O)c1cc(OC(F)(F)F)cc(NS(=O)(=O)c2cc(Br)cc(Cl)c2O)c1O [HCH-56, (S)—N-(1-Amino-3-hydroxy-1-oxopropan-2-yl)-3-((5-bromo-3-chloro-2-hydroxyphenyl)sulfonamido)-2-hydroxy-5-(trifluoromethoxy)benzamide] | 190
CC(NC(=O)c1cc(OC(F)(F)F)cc(NS(=O)(=O)c2cc(Br)cc(Cl)c2O)c1O)C(N)=O (stereo not shown) [HCH-57, N-(1-Amino-1-oxopropan-2-yl)-3-((5-bromo-3-chloro-2-hydroxyphenyl)sulfonamido)-2-hydroxy-5-(trifluoromethoxy)benzamide] | 150
CCc1cc(Br)cc(S(=O)(=O)Nc2cc(Cl)cc(C(=O)NC3COC3)c2O)c1O [HCH-58, 3-((5-Bromo-3-ethyl-2-hydroxyphenyl)sulfonamido)-5-chloro-2-hydroxy-N-(oxetan-3-yl)benzamide] | 460
CCc1cc(Br)cc(S(=O)(=O)Nc2cc(Cl)cc(C(=O)NC(C)C(N)=O)c2O)c1O (stereo not shown) [HCH-59, N-(1-Amino-1-oxopropan-2-yl)-3-((5-bromo-3-ethyl-2-hydroxyphenyl)sulfonamido)-5-chloro-2-hydroxybenzamide] | 340
COC1CC(NC(=O)c2cc(OC(F)(F)F)cc(NS(=O)(=O)c3cc(Br)cc(Cl)c3O)c2O)C1 (stereo not shown) [HCH-60, 3-((5-Bromo-3-chloro-2-hydroxyphenyl)sulfonamido)-2-hydroxy-N-(3-methoxycyclobutyl)-5-(trifluoromethoxy)benzamide] | 240
O=C(NC1CC(O)C1)c1cc(OC(F)(F)F)cc(NS(=O)(=O)c2cc(Br)cc(Cl)c2O)c1O (stereo not shown) [HCH-61, 3-((5-Bromo-3-chloro-2-hydroxyphenyl)sulfonamido)-2-hydroxy-N-(3-hydroxycyclobutyl)-5-(trifluoromethoxy)benzamide] | 240
NC(=O)c1cc(OC(F)(F)F)cc(NS(=O)(=O)c2cc(Br)cc(Cl)c2O)c1O [HCH-62, 3-((5-Bromo-3-chloro-2-hydroxyphenyl)sulfonamido)-2-hydroxy-5-(trifluoromethoxy)benzamide] | 330
CNC(=O)c1cc(OC(F)(F)F)cc(NS(=O)(=O)c2cc(Br)cc(Cl)c2O)c1O [HCH-63, 3-((5-Bromo-3-chloro-2-hydroxyphenyl)sulfonamido)-2-hydroxy-N-methyl-5-(trifluoromethoxy)benzamide] | 200
N#CC1(c2ccc(O)c(NS(=O)(=O)c3cc(Br)ccc3O)c2)CCCC1 [JDM-06-030A, 5-Bromo-N-(5-(1-cyanocyclopentyl)-2-hydroxyphenyl)-2-hydroxybenzenesulfonamide] | 610
N#CC1(c2ccc(O)c(NS(=O)(=O)c3cc(Br)ccc3O)c2)CCC1 [JDM-06-030B, 5-Bromo-N-(5-(1-cyanocyclobutyl)-2-hydroxyphenyl)-2-hydroxybenzenesulfonamide] | 290

SMILES | Ki [nM]
N#CC1(c2ccc(O)c(NS(=O)(=O)c3cc(Br)ccc3O)c2)CCCCC1 [JDM-06-030C, 5-Bromo-N-(5-(1-cyanocyclohexyl)-2-hydroxyphenyl)-2-hydroxybenzenesulfonamide] | 230
O=S(=O)(Nc1cc(S(F)(F)(F)(F)F)ccc1O)c1cc(Br)ccc1O [JDM-08-142A, 5-Bromo-2-hydroxy-N-(2-hydroxy-5-(pentafluorosulfanyl)phenyl)benzenesulfonamide] | 110
O=S(=O)(Nc1cc(C2(C(F)(F)F)CC2)ccc1O)c1cc(Br)ccc1O [JDM-09-131, 5-Bromo-2-hydroxy-N-(2-hydroxy-5-(1-(trifluoromethyl)cyclopropyl)phenyl)benzenesulfonamide] | 550
N#CC1(c2ccc(O)c(NS(=O)(=O)c3cc(Br)ccc3O)c2)CC1 [JDM-10-107, 5-Bromo-N-(5-(1-cyanocyclopropyl)-2-hydroxyphenyl)-2-hydroxybenzenesulfonamide] | 850
O=S(=O)(Nc1cc(C2CC2)ccc1O)c1cc(Br)ccc1O [JDM-10-108A, 5-Bromo-N-(5-cyclopropyl-2-hydroxyphenyl)-2-hydroxybenzenesulfonamide] | 820
COc1ccc(Br)cc1S(=O)(=O)Nc1cc(Cl)cc([N+](=O)[O-])c1O [NE1, 5-Bromo-N-(5-chloro-2-hydroxy-3-nitrophenyl)-2-methoxybenzenesulfonamide] | 1780
COc1ccc(Cl)cc1S(=O)(=O)Nc1cc(Cl)cc([N+](=O)[O-])c1O [NE2, 5-Chloro-N-(5-chloro-2-hydroxy-3-nitrophenyl)-2-methoxybenzenesulfonamide] | 5050
O=[N+]([O-])c1cc(Cl)cc(NS(=O)(=O)c2cc(Br)ccc2O)c1O [NE6, 5-Bromo-N-(5-chloro-2-hydroxy-3-nitrophenyl)-2-hydroxybenzenesulfonamide] | 12400
O=[N+]([O-])c1cc(Cl)cc(NS(=O)(=O)c2cc(Br)cc3c2OCC3)c1O [NE7, 5-Bromo-N-(5-chloro-2-hydroxy-3-nitrophenyl)-2,3-dihydrobenzofuran-7-sulfonamide] | 1110
COc1cc(OC)c(S(=O)(=O)Nc2cc(Cl)cc([N+](=O)[O-])c2O)cc1Br [NE8, 5-Bromo-N-(5-chloro-2-hydroxy-3-nitrophenyl)-2,4-dimethoxybenzenesulfonamide] | 7240
O=[N+]([O-])c1cc(Cl)cc(NS(=O)(=O)c2cc(Br)cc(OC(F)(F)F)c2O)c1O [NE9, 5-Bromo-N-(5-chloro-2-hydroxy-3-nitrophenyl)-2-hydroxy-3-(trifluoromethoxy)benzenesulfonamide] | 390
CCCc1cc(Br)cc(S(=O)(=O)Nc2cc(Cl)cc([N+](=O)[O-])c2O)c1O [NE10, 5-Bromo-N-(5-chloro-2-hydroxy-3-nitrophenyl)-2-hydroxy-3-propylbenzenesulfonamide] | 11700
O=C(O)c1cc(Br)cc(S(=O)(=O)Nc2cc(Cl)cc([N+](=O)[O-])c2O)c1O [NE12] | 610
O=C1CCCN1c1cc(Cl)cc(NS(=O)(=O)c2cc(Br)cc(Cl)c2O)c1 [NE13, 5-Bromo-3-chloro-N-(3-chloro-5-(2-oxopyrrolidin-1-yl)phenyl)-2-hydroxybenzenesulfonamide] | 1420
O=C1NCCN1c1cc(Cl)cc(NS(=O)(=O)c2cc(Br)cc(Cl)c2O)c1 [NE14, 5-Bromo-3-chloro-N-(3-chloro-5-(2-oxoimidazolidin-1-yl)phenyl)-2-hydroxybenzenesulfonamide] | 370
CNC(=O)c1cc(C2(C#N)CCC2)cc(NS(=O)(=O)c2cc(Br)cc(Cl)c2OC)c1O [SN-3, 3-((5-bromo-3-chloro-2-methoxyphenyl)sulfonamido)-5-(1-cyanocyclobutyl)-2-hydroxy-N-methylbenzamide] | 13700
COc1c(Cl)cc(Br)cc1S(=O)(=O)Nc1cc(C2(C#N)CCC2)cc(C(=O)O)c1O [SN-4, 3-((5-bromo-3-chloro-2-methoxyphenyl)sulfonamido)-5-(1-cyanocyclobutyl)-2-hydroxybenzoic acid] | 870
CNC(=O)c1cc(C2(C#N)CCC2)cc(NS(=O)(=O)c2cc(Br)c(F)cc2OC)c1O [SN-5, 3-((5-bromo-4-fluoro-2-methoxyphenyl)sulfonamido)-5-(1-cyanocyclobutyl)-2-hydroxy-N-methylbenzamide] | 2620
